Data on four compounds can be found in US20220226382A1, “Nutritional Composition” (MORINAGA MILK INDUSTRY CO., LTD., priority 2019, published 2022).

The subject of the assay is simian rotavirus SA11 strain. The assay is described as follows: Plaque assay: antiviral action against simian rotavirus in MA104 cells (infection-suppressing ratio). Format: cell-based. To be noted: human milk oligosaccharide alone, n=3. The method, then: The simian rotavirus SA11 strain (Nihon Bioresearch Inc.) was inoculated to the MA104 cells (Sigma-Aldrich) of African green monkey kidney maintained in a minimum essential medium (Sigma-Aldrich, henceforth referred to simply as “medium”). The simian rotavirus SA11 strain, for example, can be obtained from American Type Culture Collection (ATCC) as ATCC VR-1565. To the medium, lactoferrin (LF) and/or the human milk oligosaccharide(s) shown below were added beforehand alone or in combination at the following concentrations, respectively (n=3).
LF (produced by Morinaga Milk Industry Co., Ltd.): 0, 0.1 or 1.0 mg/mL
2′-Fucosyllactose (2′-FL, Funakoshi Co., Ltd.): 0, 0.1, 0.5, or 2.5 mg/mL
3-Fucosyllactose (3-FL, Funakoshi Co., Ltd.): 0, 0.1, or 0.5 mg/mL
3′-Sialyllactose (3′-SL, Funakoshi Co., Ltd.): 0, 0.1, or 0.5 mg/mL
6′-Sialyllactose (6′-SL, Funakoshi Co., Ltd.): 0, 0.1, or 0.5 mg/mL
Human milk oligosaccharides (mixture) (HMO mix, mixture of 2′-FL (2.5 mg/mL), 3-FL (0.5 mg/mL), 3′-SL (0.25 mg/mL) and 6′-SL (0.5 mg/mL))
The amount of 1.0 mg/mL corresponds to 0.1 mass % in mass percentage.
Degree of infection was evaluated based on the number of “plaques” formed when the cells were infected with the virus. Specifically, the antiviral effects of lactoferrin and human milk oligosaccharides were evaluated based on “plaque-suppressing ratio (%)”, i.e., the ratio of “plaque counts observed with lactoferrin and/or human milk oligosaccharide(s) supplementation” to “plaque counts observed without these supplementation”. Plaque-suppressing ratio was then regarded as “infection-suppressing ratio (%)”.

On to 2′-Fucosyllactose [2′-FL], for which, under “0.1 mg/mL”, the infection-suppressing ratio came to 1.2%.
Regarding 3-Fucosyllactose [3-FL], the infection-suppressing ratio (0.1 mg/mL) was 6.6% and the infection-suppressing ratio (0.5 mg/mL) is 21%.
In the case of `CC(=O)N[C@H]1[C@H]([C@H](O)[C@H](O)CO)O[C@@](O[C@H]2[C@@H](O)[C@@H](CO)O[C@@H](O[C@H]3[C@H](O)[C@@H](O)C(O)O[C@@H]3CO)[C@@H]2O)(C(=O)O)C[C@@H]1O` (stereo partly drawn) [3′-SL, 3′-Sialyllactose], the infection-suppressing ratio (0.5 mg/mL) was 33%.
As to `CC(=O)N[C@H]1[C@H]([C@H](O)[C@H](O)CO)O[C@@](OC[C@H]2O[C@@H](O[C@H]3[C@H](O)[C@@H](O)[C@H](O)O[C@@H]3CO)[C@H](O)[C@@H](O)[C@H]2O)(C(=O)O)C[C@@H]1O` [6′-SL, 6′-Sialyllactose], the infection-suppressing ratio reads like this: (0.1 mg/mL) 4.5%; (0.5 mg/mL) 23%.
